# Patent publication US20160009693A1, “HERBICIDAL COMPOUNDS” (SYNGENTA LIMITED, priority 2013, published 2016)
# How the values were obtained:
# Format in all cases: in vivo
# Settings in all cases: applied at 1000 g/h, evaluated after 13 days
# [1] = test system: Ipomoea hederacea (IPOHE); experiment: Herbicidal glasshouse test, pre-emergence, IPOHE
# [2] = test system: Echinochloa crus-galli (ECHCG); experiment: Herbicidal glasshouse test, post-emergence, ECHCG
# Method in brief: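 In this post-emergence glasshouse test, barnyard grass (ECHCG) was cultivated for 8 days under controlled conditions (24/16° C. day/night, 14 hours light, 65% humidity). It was then sprayed with an aqueous solution of the technical compound in acetone / water (50:50) with 0.5% Tween 20. Plants were kept under the same conditions and watered twice daily. After 13 days, percentage damage was rated on a five point scale (5=80-100%; 1=0-19%).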
# Solanum nigrum (SOLNI) [3] = experiment: Herbicidal glasshouse test, pre-emergence, SOLNI
# Method in brief: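 This pre-emergence glasshouse herbicide test used Solanum nigrum sown in standard soil. One day after sowing, pots were sprayed with the compound in acetone/water (50:50) with 0.5% Tween 20. They were then grown at 24/16° C., with 14 hours light and 65% humidity, and watered twice daily. Percentage damage was scored after 13 days on a five point scale, where 5=80-100% and 1=0-19%.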
# [4] = test system: Amaranthus retoflexus (AMARE); experiment: Herbicidal glasshouse test, pre-emergence, AMARE
# Method in brief: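 This pre-emergence glasshouse herbicide test used Amaranthus retoflexus sown in standard soil. After one day of cultivation, an aqueous spray made from the technical ingredient in 50:50 acetone/water with 0.5% Tween 20 was applied. Pots stayed at 24/16° C., 14 hours light, 65% humidity, with twice-daily watering. Damage was rated on a five point scale (1=0-19% up to 5=80-100%).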
# [5] = test system: Ipomoea hederacea (IPOHE); experiment: Herbicidal glasshouse test, post-emergence, IPOHE
# [6] = test system: Alopecurus myosuroides (ALOMY); experiment: Herbicidal glasshouse test, post-emergence, ALOMY
# [7] = test system: Amaranthus retoflexus (AMARE); experiment: Herbicidal glasshouse test, post-emergence, AMARE
# Method in brief: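 This post-emergence glasshouse test used AMARE plants raised in standard soil for 8 days under controlled conditions (24/16° C. day/night, 14 hours light, 65% humidity). Foliage was sprayed with formulated compound in acetone/water (50:50) containing 0.5% Tween 20. Plants were then watered twice daily, and after 13 days percentage damage was rated on a five point scale.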
# [8] = test system: Alopecurus myosuroides (ALOMY); experiment: Herbicidal glasshouse test, pre-emergence, ALOMY
# Solanum nigrum (SOLNI) [9] = experiment: Herbicidal glasshouse test, post-emergence, SOLNI
# [10] = test system: Echinochloa crus-galli (ECHCG); experiment: Herbicidal glasshouse test, pre-emergence, ECHCG
# Method in brief: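 In this pre-emergence glasshouse test, ECHCG seeds sown in pots of standard soil were sprayed one day after sowing with the test material in acetone/water (50:50) containing 0.5% Tween 20. Plants were kept at 24/16° C., 14 hours light, 65% humidity, and watered twice daily. Percentage damage was rated after 13 days on a 1–5 scale.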
# Setaria faberi (SETFA) [11] = experiment: Herbicidal glasshouse test, pre-emergence, SETFA
# Setaria faberi (SETFA) [12] = experiment: Herbicidal glasshouse test, post-emergence, SETFA
# Method in brief: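 This post-emergence glasshouse herbicide test used potted Setaria faberi. Plants were cultivated for 8 days under controlled conditions (24/16° C. day/night, 14 hours light, 65% humidity) and then treated with an aqueous spray made from an acetone/water (50:50) solution containing 0.5% Tween 20. After 13 days of further growth with twice-daily watering, damage was rated on a five point scale (5=80-100%; 1=0-19%).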
SMILES,"PRE Application IPOHE, percentage damage (five point scale) [1]","POST Application ECHCG, percentage damage (five point scale) [2]","PRE Application SOLNI, percentage damage (five point scale) (Solanum nigrum (SOLNI) [3])","PRE Application AMARE, percentage damage (five point scale) [4]","POST Application IPOHE, percentage damage (five point scale) [5]","POST Application ALOMY, percentage damage (five point scale) [6]","POST Application AMARE, percentage damage (five point scale) [7]","PRE Application ALOMY, percentage damage (five point scale) [8]","POST Application SOLNI, percentage damage (five point scale) (Solanum nigrum (SOLNI) [9])","PRE Application ECHCG, percentage damage (five point scale) [10]","PRE Application SETFA, percentage damage (five point scale) (Setaria faberi (SETFA) [11])","POST Application SETFA, percentage damage (five point scale) (Setaria faberi (SETFA) [12])"
Cn1nnnc1NC(=O)c1nn(C)c(=O)n(Cc2cccc(F)c2)c1=O [Compound 1.063],5 (5=80-100%),5 (5=80-100%),5 (5=80-100%),5 (5=80-100%),5 (5=80-100%),5 (5=80-100%),5 (5=80-100%),5 (5=80-100%),5 (5=80-100%),5 (5=80-100%),4 (4=60-79%),4 (4=60-79%)
Cn1nnnc1NC(=O)c1nn(C)c(=O)n(CCCC(F)(F)F)c1=O [Compound 1.090],5 (5=80-100%),5 (5=80-100%),5 (5=80-100%),5 (5=80-100%),5 (5=80-100%),5 (5=80-100%),5 (5=80-100%),5 (5=80-100%),5 (5=80-100%),5 (5=80-100%),5 (5=80-100%),5 (5=80-100%)
Cn1nnnc1NC(=O)c1nn(C)c(=O)n(Cc2c(F)cc(F)cc2F)c1=O [Compound 1.056],5 (5=80-100%),4 (4=60-79%),5 (5=80-100%),5 (5=80-100%),5 (5=80-100%),5 (5=80-100%),5 (5=80-100%),5 (5=80-100%),5 (5=80-100%),5 (5=80-100%),1 (1=0-19%),4 (4=60-79%)
Cn1nnnc1NC(=O)c1nn(C)c(=O)n(Cc2ccc(OC(F)F)cc2)c1=O [Compound 1.066],5 (5=80-100%),5 (5=80-100%),5 (5=80-100%),5 (5=80-100%),5 (5=80-100%),5 (5=80-100%),5 (5=80-100%),5 (5=80-100%),5 (5=80-100%),5 (5=80-100%),1 (1=0-19%),1 (1=0-19%)
Cn1nnnc1NC(=O)c1nn(C)c(=O)n(-c2cccc(Br)c2)c1=O [Compound 1.033],5 (5=80-100%),5 (5=80-100%),5 (5=80-100%),5 (5=80-100%),5 (5=80-100%),5 (5=80-100%),5 (5=80-100%),5 (5=80-100%),5 (5=80-100%),5 (5=80-100%),5 (5=80-100%),5 (5=80-100%)
Cn1nnnc1NC(=O)c1nn(C)c(=O)n(Cc2cccc(F)c2C(F)(F)F)c1=O [Compound 1.076],5 (5=80-100%),5 (5=80-100%),5 (5=80-100%),5 (5=80-100%),5 (5=80-100%),5 (5=80-100%),5 (5=80-100%),5 (5=80-100%),5 (5=80-100%),5 (5=80-100%),5 (5=80-100%),5 (5=80-100%)
CSc1cccc(-n2c(=O)c(C(=O)Nc3nnnn3C)nn(C)c2=O)c1 [Compound 1.043],5 (5=80-100%),5 (5=80-100%),5 (5=80-100%),5 (5=80-100%),5 (5=80-100%),5 (5=80-100%),5 (5=80-100%),4 (4=60-79%),5 (5=80-100%),5 (5=80-100%),2 (2=20-39%),4 (4=60-79%)
Cc1ccc(Cl)cc1-n1c(=O)c(C(=O)Nc2nnnn2C)nn(C)c1=O [Compound 1.016],5 (5=80-100%),5 (5=80-100%),5 (5=80-100%),5 (5=80-100%),5 (5=80-100%),5 (5=80-100%),5 (5=80-100%),5 (5=80-100%),5 (5=80-100%),5 (5=80-100%),5 (5=80-100%),5 (5=80-100%)
COc1cc(-n2c(=O)c(C(=O)Nc3nnnn3C)nn(C)c2=O)ccc1F [Compound 1.048],5 (5=80-100%),5 (5=80-100%),5 (5=80-100%),5 (5=80-100%),5 (5=80-100%),5 (5=80-100%),5 (5=80-100%),5 (5=80-100%),5 (5=80-100%),5 (5=80-100%),5 (5=80-100%),5 (5=80-100%)
Cn1nnnc1NC(=O)c1nn(C)c(=O)n(Cc2ccc(F)cc2Cl)c1=O [Compound 1.069],5 (5=80-100%),5 (5=80-100%),5 (5=80-100%),5 (5=80-100%),5 (5=80-100%),5 (5=80-100%),5 (5=80-100%),5 (5=80-100%),5 (5=80-100%),5 (5=80-100%),2 (2=20-39%),2 (2=20-39%)
